Experimental findings from patent US20190375708A1 (VenatoRx Pharmaceuticals, Inc., priority 2018, published 2019) are described below.

Series [1] concerns HBV replication in HepAD38 cells. The series is described as follows: Anti-HBV replication assay in HepAD38 cells (QPCR of extracellular HBV DNA). Particulars: Hepatitis B virus, 168 h, 7 days incubation, extracellular HBV DNA by QPCR, read-out: Anti-HBV EC50. In kind it is cell-based, HBV (genotype D, serotype ayw). The essentials:
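Tet-off HepAD38, 7-day compound exposure ([…], 1 log10 steps, DMSO vehicle), 37 °C. Extracellular HBV DNA by QPCR, copies/mL via standard curve, % inhibition vs vehicle, EC50 by 4-parameter regression. Entecavir as positive control.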

Series [2] can be described thus: In vitro cytotoxicity assay (MTT cell viability) in HepG2 cells. It counts as cell-based, human. The following applies: human. The essentials: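 CC50 values reflect loss of HepG2 viability after a 7-day exposure at 37 °C, 5% CO2. After 3-4 h with MTT, solubilized formazan was quantified at 492 nm relative to vehicle wells.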

What is called EC50 is the concentration that produces a half-maximal response. For orientation: CC50 means the concentration that lowers cell viability or growth by half. Read a low CC50 as greater toxicity to the cells. `Cc1noc([C@@H](C)NC(=O)C(=O)c2c(Cl)c(C(=O)Nc3ccc(F)c(F)c3)c3n2CCCC3)n1` [Example 517, (R)-2-chloro-N-(3,4-difluorophenyl)-3-(2-((1-(3-methyl-1,2,4-oxadiazol-5-yl)ethyl)amino)-2-oxoacetyl)-5,6,7,8-tetrahydroindolizine-1-carboxamidde]: the EC50 in series [1] was 50 to 499 nM. Moreover, the CC50 at 7 days in series [2] was in the range of 5000 to 30000 nM.
The matching figures for `Cc1c(C(=O)NC2CCCC2)c2n(c1C(=O)C(=O)NC(C)(C)CO)CCCC2` [Example 754]: 50 to 499 nM and greater than 30000 nM.
The corresponding values for `Cc1c(C(=O)Nc2ccc(F)nc2)c(C)n(C)c1C(=O)C(=O)NC1(C)CCOCC1` [Example 325, N-(6-fluoropyridin-3-yl)-1,2,4-trimethyl-5-(2-((4-methyltetrahydro-2H-pyran-4-yl)amino)-2-oxoacetyl)-1H-pyrrole-3-carboxamide] are 50 to 499 nM and greater than 30000 nM.
`Cc1cc(NC(=O)c2c(C)c(C(=O)C(=O)N[C@H](C(N)=O)C(C)C)n(C)c2C)ccc1F` [Example 107, (S)-5-(2-((1-amino-3-methyl-1-oxobutan-2-yl)amino)-2-oxoacetyl)-N-(4-fluoro-3-methylphenyl)-1,2,4-trimethyl-1H-pyrrole-3-carboxamide]: the EC50 in series [1] is less than 50 nM. This compound showed a CC50 at 7 days in series [2] greater than 30000 nM.
The corresponding values for `Cc1cc(NC(=O)c2c(C)c(C(=O)C(=O)NCC(=O)N3CCOCC3)n(C)c2C)ccc1F` [Example 299, N-(4-fluoro-3-methylphenyl)-1,2,4-trimethyl-5-(2-((2-morpholino-2-oxoethyl)amino)-2-oxoacetyl)-1H-pyrrole-3-carboxamide] are 50 to 499 nM and greater than 30000 nM.
Regarding `Cc1cc(NC(=O)c2c(C)c(C(=O)C(=O)NC3(CO)CC(F)(F)C3)n(C)c2C)cnc1F` [Example 184, 5-(2-((3,3-difluoro-1-(hydroxymethyl)cyclobutyl)amino)-2-oxoacetyl)-N-(6-fluoro-5-methylpyridin-3-yl)-1,2,4-trimethyl-1H-pyrrole-3-carboxamide], the EC50 in series [1] was less than 50 nM. Further, the CC50 at 7 days in series [2] is greater than 30000 nM.
Turning to `Cc1c(C(=O)Nc2ccc(F)c(Cl)c2)c2n(c1C(=O)C(=O)N[C@H]1COC[C@@H]1O)CCCC2` [Example 450, N-(3-chloro-4-fluorophenyl)-3-(2-(((3S,4R)-4-hydroxytetrahydrofuran-3-yl)amino)-2-oxoacetyl)-2-methyl-5,6,7,8-tetrahydroindolizine-1-carboxamide], the EC50 in series [1] was 50 to 499 nM. The same compound yielded a CC50 at 7 days in series [2] greater than 30000 nM.
The matching figures for `Cc1noc([C@@H](C)NC(=O)C(=O)c2c(C)c(C(=O)Nc3ccc(F)c(Cl)c3)c3n2CCCC3)n1` [Example 447, (R)-N-(3-chloro-4-fluorophenyl)-2-methyl-3-(2-((1-(3-methyl-1,2,4-oxadiazol-5-yl)ethyl)amino)-2-oxoacetyl)-5,6,7,8-tetrahydroindolizine-1-carboxamide]: less than 50 nM and 5000 to 30000 nM.
On to `Cc1cc(NC(=O)c2c(Cl)c(C(=O)C(=O)N[C@@H](C)C(F)(F)F)n3c2CCC3)cnc1F` [Example 574, (S)-6-chloro-N-(6-ffluoro-5-methylpyridin-3-yl)-5-(2-oxo-2-((1,1,1-trifluoropropan-2-yl)amino)acetyl)-2,3-dihydro-1H-pyrroliine-7-carboxamide], for which the 50% effective concentration (EC50) in series [1] is 500 to 1000 nM. The same compound returned a CC50 at 7 days in series [2] of 5000 to 30000 nM.
The matching figures for `Cc1noc(C(NC(=O)C(=O)c2c(C)c(C(=O)Nc3ccc(F)c(C)c3)c(C)n2C)C(C)C)n1` (stereo not shown) [Example 81, N-(4-fluoro-3-methylphenyl)-1,2,4-trimethyl-5-(2-((2-methyl-1-(3-methyl-1,2,4-oxadiazol-5-yl)propyl)amino)-2-oxoacetyl)-1H-pyrrole-3-carboxamide]: less than 50 nM and greater than 30000 nM.
The corresponding values for `Nc1ncc(CNC(=O)C(=O)c2c(Cl)c(C(=O)Nc3ccc(F)c(Cl)c3)c3n2CCC3)s1` [Example 562, 5-(2-(((2-aminothiazol-5-yl)methyl)amino)-2-oxoacetyl)-6-chloro-N-(3-chloro-4-fluorophenyl)-2,3-dihydro-1H-pyrrolizine-7-carboxamide] are less than 50 nM and 5000 to 30000 nM.
The matching figures for `Cc1cc(NC(=O)c2c(C)c(C(=O)C(=O)NCc3csc(N)n3)n(CCF)c2C)ccc1F` [Example 229, 5-(2-(((2-aminothiazol-4-yl)methyl)amino)-2-oxoacetyl)-N-(4-fluoro-3-methylphenyl)-1-(2-fluoroethyl)-2,4-dimethyl-1H-pyrrole-3-carboxamide]: less than 50 nM and greater than 30000 nM.
Turning to `Cc1cc(NC(=O)c2c(C)c(C(=O)C(=O)N[C@H]3CNC(=O)C3)n(C)c2C)ccc1F` [Example 611, (R)-N-(4-fluoro-3-methylphenyl)-1,2,4-trimethyl-5-(2-oxo-2-((5-oxopyrrolidin-3-yl)amino)acetyl)-1H-pyrrole-3-carboxamide], in series [1], the EC50 was less than 50 nM. The CC50 at 7 days in series [2] was greater than 30000 nM.
The corresponding values for `Cc1cc(NC(=O)c2c(C)c(C(=O)C(=O)NC3CCC(F)(F)CC3)n(C)c2C)ccc1F` [Example 250, 5-(2-((4,4-difluorocyclohexyl)amino)-2-oxoacetyl)-N-(4-fluoro-3-methylphenyl)-1,2,4-trimethyl-1H-pyrrole-3-carboxamide] are less than 50 nM and 5000 to 30000 nM.
The corresponding values for `Cc1cc(NC(=O)c2cc(C(=O)C(=O)N[C@@H](C(=O)O)C(C)(C)C)n3c2CCCC3)ccc1F` [Example 422, (R)-2-(2-(1-((4-fluoro-3-methylphenyl)carbamoyl)-5,6,7,8-tetrahydroindolizin-3-yl)-2-oxoacetamido)-3,3-dimethylbutanoic acid] are greater than 1000 nM and greater than 30000 nM.
Turning to `Cc1cc(NC(=O)c2c(C)c(C(=O)C(=O)Nc3ccn(C)n3)n(C)c2C)ccc1F` [Example 306, N-(4-fluoro-3-methylphenyl)-1,2,4-trimethyl-5-(2-((1-methyl-1H-pyrazol-3-yl)amino)-2-oxoacetyl)-1H-pyrrole-3-carboxamide], the EC50 in series [1] was less than 50 nM. Also, in series [2], the half-maximal cytotoxic concentration (CC50) at 7 days was greater than 30000 nM.
The matching figures for `Cc1cc(NC(=O)c2c(C)c(C(=O)C(=O)NC3(C(F)(F)F)CCOCC3)n(C)c2C)ccc1F` [Example 109, N-(4-fluoro-3-methylphenyl)-1,2,4-trimethyl-5-(2-oxo-2-((4-(trifluoromethyl)tetrahydro-2H-pyran-4-yl)amino)acetyl)-1H-pyrrole-3-carboxamide]: less than 50 nM and greater than 30000 nM.
As for `Cc1cc(NC(=O)c2c(C)c(C(=O)C(=O)Nc3ccc(F)nc3)n(C)c2C)ccc1F` [Example 212, N-(4-fluoro-3-methylphenyl)-5-(2-((6-fluoropyridin-3-yl)amino)-2-oxoacetyl)-1,2,4-trimethyl-1H-pyrrole-3-carboxamide], the EC50 in series [1] was less than 50 nM. This compound had a CC50 at 7 days in series [2] of 5000 to 30000 nM.
On to `Cc1cc(NC(=O)c2cc(C(=O)C(=O)N[C@H](C(N)=O)[C@@H](C)O)n3c2CCCC3)ccc1F` [Example 401], for which, in series [1], the EC50 is greater than 1000 nM. For the same compound, the CC50 at 7 days in series [2] was greater than 30000 nM.
As for `CC(C)(CO)CNC(=O)C(=O)c1c(Cl)c(C(=O)Nc2ccc(F)c(Cl)c2)c2n1CCCC2` [Example 527, 2-chloro-N-(3-chloro-4-fluorophenyl)-3-(2-((3-hydroxy-2,2-dimethylpropyl)amino)-2-oxoacetyl)-5,6,7,8-tetrahydroindolizine-1-carboxamide], in series [1], the EC50 lay in the range of 500 to 1000 nM. In series [2], the CC50 at 7 days is 500 to 4990 nM.
`Cc1cc(NC(=O)c2c(C)c(C(=O)C(=O)N[C@@H](C(=O)NCCO)C(C)(C)C)n(C)c2C)ccc1F` [Example 86, (R)-N-(4-fluoro-3-methylphenyl)-5-(2-((1-((2-hydroxyethyl)amino)-3,3-dimethyl-1-oxobutan-2-yl)amino)-2-oxoacteyl)-1,2,4-trimethyl-1H-pyrrole-3-carboxamide]: in series [1], the concentration for a half-maximal effect (EC50) is less than 50 nM. This compound also had a CC50 at 7 days in series [2] of 5000 to 30000 nM.
Consider `CC[C@@H](CO)NC(=O)C(=O)c1c(OC)c(C(=O)Nc2ccc(F)c(F)c2)c(C)n1C` [Example 385, (S)-N-(3,4-difluorophenyl)-5-(2-((1-hydroxybutan-2-yl)amino)-2-oxoacetyl)-4-methoxy-1,2-dimethyl-1H-pyrrole-3-carboxamide], for which the EC50 in series [1] was greater than 1000 nM. In series [2], this compound displayed a half-maximal cytotoxic concentration (CC50) at 7 days greater than 30000 nM.
The matching figures for `Cc1noc([C@H](C)NC(=O)C(=O)c2c(Cl)c(C(=O)Nc3cnc(F)c(C)c3)c3n2CCCC3)n1` [Example 521, (S)-2-chloro-N-(6-fluoro-5-methylpyridin-3-yl)-3-(2-((1-(3-methyl-1,2,4-oxadiazol-5-yl)ethyl)amino)-2-oxoacetyl)-5,6,7,8-tetrahydroindolizine-1-carboxamide]: greater than 1000 nM and greater than 30000 nM.
Regarding `Cc1cc(NC(=O)c2c(C)c(C(=O)C(=O)N[C@@H]3CCC[C@@H]3O)n(C)c2C)ccc1F` [Example 146, N-(4-fluoro-3-methylphenyl)-5-(2-(((1R,2S)-2-hydroxxycyclopentyl)amino)-2-oxoacetyl)-1,2,4-trimethyl-1H-pyrrole-3-carboxamide], the EC50 in series [1] was less than 50 nM. In series [2], this compound gave a half-maximal cytotoxic concentration (CC50) at 7 days greater than 30000 nM.
The corresponding values for `Cc1cc(NC(=O)c2c(C)c(C(=O)C(=O)NC(C)(C)C(F)(F)F)n3c2CCCC3)cnc1F` [Example 468, N-(6-fluoro-5-methylpyridin-3-yl)-2-methyl-3-(2-oxo-2-((1,1,1-trifluoro-2-methylpropan-2-yl)amino)acetyl)-5,6,7,8-tetrahydroindolizine-1-carboxamide] are 50 to 499 nM and greater than 30000 nM.
The corresponding values for `Cc1c(C(=O)Nc2nccs2)c2n(c1C(=O)C(=O)NC1(CO)CCC1)CCCC2` [Example 751] are 50 to 499 nM and greater than 30000 nM.
